Several values for one entry are separate records, joined by “and”; a condition that tells them apart may be missing. Equal entries are not always repeated.
System: NCI-H1341 complex spheroids, percent test/control
Test: Anticancer human tumor NCI-H1341 cell line growth inhibition [AhR];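 further: spheroids exposed to agents for seven days before readout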
Details: for viability, T/C: stronger effect = lower value; active means viability on the fitted dose curve at most 10% of control; inactive means the rest
Outline: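 Spheroids combined tumor cells with HUVEC endothelial cells and human MSCs as stroma. AhR antagonists were paired with standard or investigational drugs, each dosed in half-log steps down from near clinical Cmax, or from 10 microM where Cmax was unknown.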

[1] = curve of first compound, second compound 0.1 µM
[2] = curve of first compound, second compound 0.316 µM
[3] = curve of first compound, second compound 1 µM
[4] = curve of first compound, second compound 3.16 µM
[5] = curve of first compound, second compound 10 µM
[6] = second compound 0.1 µM, first compound 0.0316 µM
[7] = second compound 0.1 µM, first compound 0.1 µM
[8] = second compound 0.1 µM, first compound 0.316 µM
[9] = second compound 0.1 µM, first compound 1 µM
[10] = second compound 0.1 µM, first compound 3.16 µM
[11] = second compound 0.1 µM, first compound 10 µM
[12] = second compound 0.316 µM, first compound 0.0316 µM
[13] = second compound 0.316 µM, first compound 0.1 µM
[14] = second compound 0.316 µM, first compound 0.316 µM
[15] = second compound 0.316 µM, first compound 1 µM
[16] = second compound 0.316 µM, first compound 3.16 µM
[17] = second compound 0.316 µM, first compound 10 µM
[18] = second compound 1 µM, first compound 0.0316 µM
[19] = second compound 1 µM, first compound 0.1 µM
[20] = second compound 1 µM, first compound 0.316 µM
[21] = second compound 1 µM, first compound 1 µM
[22] = second compound 1 µM, first compound 3.16 µM
[23] = second compound 1 µM, first compound 10 µM
[24] = second compound 3.16 µM, first compound 0.0316 µM
[25] = second compound 3.16 µM, first compound 0.1 µM
[26] = second compound 3.16 µM, first compound 0.316 µM
[27] = second compound 3.16 µM, first compound 1 µM
[28] = second compound 3.16 µM, first compound 3.16 µM
[29] = second compound 3.16 µM, first compound 10 µM
[30] = second compound 10 µM, first compound 0.0316 µM
[31] = second compound 10 µM, first compound 0.1 µM
[32] = second compound 10 µM, first compound 0.316 µM
[33] = second compound 10 µM, first compound 1 µM
[34] = second compound 10 µM, first compound 3.16 µM
[35] = second compound 10 µM, first compound 10 µM

NS(=O)(=O)OCC1CC(n2ccc3c(NC4CCc5ccccc54)ncnc32)CC1O (configuration not stated) + Cc1cncc(-c2nc(NCCc3c[nH]c4ccccc34)c3ncn(C(C)C)c3n2)c1
inactive: viability, T/C [6] 50.1% | viability, T/C [7] 52.7% | viability, T/C [8] 33.8% | viability, T/C [9] 15.5% | viability, T/C [10] 14% | viability, T/C [11] 12.5% | viability, T/C [12] 54.4% | viability, T/C [13] 48.5% | viability, T/C [14] 34.8% | viability, T/C [15] 17.6% | viability, T/C [16] 16.8% | viability, T/C [17] 12.4% | viability, T/C [18] 42% | viability, T/C [19] 43.6% | viability, T/C [20] 35.5% | viability, T/C [21] 18.4% | viability, T/C [22] 15.7% | viability, T/C [23] 15.8% | viability, T/C [24] 49.4% | viability, T/C [25] 41.6% | viability, T/C [26] 41.4% | viability, T/C [27] 27.6% | viability, T/C [28] 19.5% | viability, T/C [29] 17% | viability, T/C [30] 26.4% | viability, T/C [31] 31.7% | viability, T/C [32] 29.9% | viability, T/C [33] 25.2% | viability, T/C [34] 21.4% | viability, T/C [35] 20.1%
108 nM: IC50 [1]
83.3 nM: IC50 [2]
< 31.6 nM: IC50 [3] | IC50 [4] | IC50 [5]

CC1COCCN1c1cc(-c2ccnn2C)c2ccnc(-c3ccn[nH]3)c2n1 (configuration not stated) + CC(CO)NC(=O)c1cc(-c2ccc(Cl)cc2)nn(-c2cnn(C)c2)c1=O
16.8 nM: IC50 [5]
inactive: viability, T/C (second compound 0.1 µM, first compound 0.00316 µM) 87.6% | viability, T/C (second compound 0.1 µM, first compound 0.01 µM) 77.6% | viability, T/C [6] 61.2% | viability, T/C [7] 28.6% | viability, T/C [8] 20.5% | viability, T/C [9] 20.2% | viability, T/C (second compound 0.316 µM, first compound 0.00316 µM) 96.4% | viability, T/C (second compound 0.316 µM, first compound 0.01 µM) 73.6% | viability, T/C [12] 54.5% | viability, T/C [13] 29.7% | viability, T/C [14] 23.8% | viability, T/C [15] 18.2% | viability, T/C (second compound 1 µM, first compound 0.00316 µM) 90.2% | viability, T/C (second compound 1 µM, first compound 0.01 µM) 72.3% | viability, T/C [18] 44.6% | viability, T/C [19] 25.3% | viability, T/C [20] 22.7% | viability, T/C [21] 19.2% | viability, T/C (second compound 3.16 µM, first compound 0.00316 µM) 84.3% | viability, T/C (second compound 3.16 µM, first compound 0.01 µM) 77.3% | viability, T/C [24] 43.1% | viability, T/C [25] 24.6% | viability, T/C [26] 23.7% | viability, T/C [27] 17.8% | viability, T/C (second compound 10 µM, first compound 0.00316 µM) 71.2% | viability, T/C (second compound 10 µM, first compound 0.01 µM) 64% | viability, T/C [30] 33% | viability, T/C [31] 21.6% | viability, T/C [32] 22.2% | viability, T/C [33] 17.8%
34.3 nM: IC50 [2]
45.8 nM: IC50 [1]
24.8 nM: IC50 [3]
25.3 nM: IC50 [4]

CC1COCCN1c1cc(C2(S(C)(=N)=O)CC2)nc(-c2ccnc3[nH]ccc23)n1 (configuration not stated)
inactive: viability, T/C (compound 0.0316 µM) 78.3% and 98.6% and 99.5% | viability, T/C (compound 0.1 µM) 102% and 101% and 88.4% | viability, T/C (compound 0.316 µM) 83.1% and 114% and 76.1% | viability, T/C (compound 1 µM) 96.3% and 75.8% and 66.2% | viability, T/C (compound 3.16 µM) 60.8% and 47.8% and 37.9% | viability, T/C (compound 10 µM) 23.1% and 30.4% and 20.2%
4400 nM and 2570 nM and 1910 nM: IC50 (curve of compound)

COc1ccc([C@@H](O)c2cc(-c3ncnc4cc(N5CCOCC5)ccc34)c(F)cc2Cl)nn1 + Cc1ccccc1N=Nc1ccc(NC(=O)c2ccnn2C)c(C)c1
791 nM: IC50 [2]
903 nM: IC50 [1]
inactive: viability, T/C [6] 98.3% | viability, T/C [7] 91.6% | viability, T/C [8] 70.8% | viability, T/C [9] 51.5% | viability, T/C [10] 19.3% | viability, T/C [12] 87.2% | viability, T/C [13] 68.9% | viability, T/C [14] 70.6% | viability, T/C [15] 46.4% | viability, T/C [16] 19.9% | viability, T/C [18] 75.3% | viability, T/C [19] 67.9% | viability, T/C [20] 62.8% | viability, T/C [21] 42% | viability, T/C [22] 21.6% | viability, T/C [24] 73% | viability, T/C [25] 59.9% | viability, T/C [26] 58.7% | viability, T/C [27] 38.5% | viability, T/C [28] 18% | viability, T/C [30] 47.2% | viability, T/C [31] 51.8% | viability, T/C [32] 39.3% | viability, T/C [33] 29.2% | viability, T/C [34] 14.3%
461 nM: IC50 [4]
< 31.6 nM: IC50 [5]
631 nM: IC50 [3]
active: viability, T/C [11] 8.09% | viability, T/C [17] 8.42% | viability, T/C [23] 8.86% | viability, T/C [29] 5.82% | viability, T/C [35] 7.84%

Reference: PubChem BioAssay AID1919014 (Molecular Pharmacology Branch, DTP, NCI, 2023)
